Columns and labels:
Type in all cases: physicochemical
[1] = Influencing factor stability of crystal forms (light, high temperature, high humidity, 30 days); conditions: for change in purity under 60° C. and light: 60° C. and light (4500 Lux); for change in purity under 60° C. and light / physicochemical stability under high humidity: open; for physicochemical stability under high humidity: high humidity conditions of 75% and 92.5%; for crystal form after influencing factor experiments: light, high temperature, high humidity
Protocol: Each crystal form was spread out in an open exposure setup, and the stability of the samples under conditions of light (4500 Lux), high temperature (40° C., 60° C.), and high humidity (RH 75 RH 92.5%) was examined separately. The sampling inspection period was 30 days.

[2] = Long-term/accelerated stability of crystal forms (25° C. 60% RH and 40° C. 75% RH); conditions: for physical and chemical stability, long-term accelerated conditions: 25° C. 60% RH and 40° C. 75% RH, six months
Protocol: The crystal forms D, E, Q, and U of the compound of formula (I) were respectively placed under conditions of 25° C. with 60% RH and 40° C. with 75% RH to evaluate their stability.

[3] = Hygroscopicity study of crystal forms (dynamic vapour sorption, 25° C.); conditions: for Crystal form after hygroscopicity test: two cycles
Description: According to the “9103 Guideline for Hygroscopicity for Pharmaceuticals” in Part IV of the 2015 edition of the Chinese Pharmacopoeia, descriptions of hygroscopic characteristics and definitions of hygroscopic weight gain are as follows; • Deliquescent: Absorbs sufficient moisture to form a liquid; • Extremely hygroscopic: Hygroscopic weight gain is no less than 15%; • Hygroscopic: Hygroscopic weight gain is less than 15% but no less than 2%; • Slightly hygroscopic: Hygroscopic weight gain is less than 2% but no less than 0.2%; • Non-hygroscopic or nearly non-hygroscopic: Hygroscopic weight gain is less than 0.2%.
Compound of Formula (I) (Oct. 15, 2021, Nanjing) 03881 Using the Surface Measurement Systems advantage 2, at a temperature of 25° C., and starting at a humidity of 50%, the humidity range was examined from […] to 95%, with increments of 10%. The criterion for evaluation was that the mass change dM/dT at each gradient was less than 0.002%, TMAX was 360 min, and the process was cycled twice.

[4] = 92.5% RH, 7 days, open exposure
[5] = 92.5% RH, 30 days, open exposure
[6] = light 4500 Lux, 30 days, open exposure

In the case of `N#Cc1ccc(N2CCC(Sc3ccc(COc4cccc5c4CN([C@H]4CCC(=O)NC4=O)C5=O)cn3)CC2)c(F)c1` [Crystal form U, (S)-4-(4-((5-(((2-(2,6-dioxopiperidin-3-yl)-1-oxoisoindolin-4-yl)oxy)methyl)pyridin-2-yl)thio)piperidin-1-yl)-3-fluorobenzonitrile], the Color and character ([1]; 40° C., 7 days, open exposure) is reported as “White solid”, the Purity % ([1]; 40° C., 7 days, open exposure) is reported as 99.5% and the Color and character ([1]; 40° C., 14 days, open exposure) is reported as “White solid”. The Purity % ([1]; 40° C., 14 days, open exposure, listed as Free crystal form U) was 99.3%, the Color and character ([1]; 40° C., 30 days, open exposure) was “White solid” and the Purity % ([1]; 40° C., 30 days, open exposure, listed as Free crystal form U) was 98.8%. For the same molecule, the “change in purity under 60° C. and light” value ([1]; 30 days) was “slight decrease in purity”, the Color and character ([1]; 60° C., 7 days, open exposure) was “White solid” and the Purity % ([1]; 60° C., 7 days, open exposure, listed as Free crystal form U) was 98.9%. The Color and character ([1]; 60° C., 14 days, open exposure) was “White solid”, the Purity % ([1]; 60° C., 14 days, open exposure, listed as Free crystal form U) was 98.5% and the Color and character ([1]; 60° C., 30 days, open exposure) was “White solid”. The Purity % ([1]; 60° C., 30 days, open exposure, listed as Free crystal form U) was 97.5%, the Color and character ([1]; 75% RH, 7 days, open exposure) was “White solid” and the Purity % ([1]; 75% RH, 7 days, open exposure) was 99.6%. The Color and character ([1]; 75% RH, 14 days, open exposure) was “White solid”, the Purity % ([1]; 75% RH, 14 days, open exposure, listed as Free crystal form U) was 99.7% and the Color and character ([1]; 75% RH, 30 days, open exposure) was “White solid”. The Purity % ([1]; 75% RH, 30 days, open exposure, listed as Free crystal form U) was 99.6%, the Color and character [1, 4] was “White solid” and the Purity % [1, 4] was 99.7%. For the same molecule, the Color and character ([1]; 92.5% RH, 14 days, open exposure) was “White solid”, the Purity % ([1]; 92.5% RH, 14 days, open exposure, listed as Free crystal form U) was 99.7% and the Color and character [1, 5] was “White solid”. The Purity % ([1]; 92.5% RH, 30 days, open exposure, listed as Free crystal form U) was 99.6%, the Color and character ([1]; Onset, 0 days) was “White solid” and the Purity % ([1]; Onset, 0 days, listed as Free crystal form U) was 99.7%. For the same molecule, the “physicochemical stability under high humidity” value ([1]; 30 days) was “good physicochemical stability”, the Color and character ([1]; light 4500 Lux, 7 days, open exposure) was “White solid” and the Purity % ([1]; light 4500 Lux, 7 days, open exposure, listed as Free crystal form U) was 99.3%. For the same molecule, the Color and character ([1]; light 4500 Lux, 14 days, open exposure) was “White solid”, the Purity % ([1]; light 4500 Lux, 14 days, open exposure, listed as Free crystal form U) was 99.3% and the Color and character [1, 6] was “White solid”. The Purity % ([1]; light 4500 Lux, 30 days, open exposure, listed as Free crystal form U) was 98.8%, the “crystal form after influencing factor experiments” value ([1]; 30 days) was “remain unchanged” and the “physical and chemical stability, long-term accelerated conditions” value [2] was “good physical and chemical stability”. The “Purity % 1 month” value ([2]; 25° C., 60% RH) was 99.7%, the “Purity % 2 months” value ([2]; 25° C., 60% RH) was 99.6% and the “Purity % 3 months” value ([2]; 25° C., 60% RH) was 99.6%. For the same molecule, the “Purity % 1 month” value ([2]; 40° C., 75% RH) was 99.7%, the “Purity % 2 months” value ([2]; 40° C., 75% RH) was 99.6% and the “Purity % 3 months” value ([2]; 40° C., 75% RH) was 99.6%. The “Purity % 6 months” value ([2]; 40° C., 75% RH) was 99.5%, the “Purity % Onset” value [2] was 99.7% and the “Hygroscopic weight change 0.0% RH-95.0% RH” value [3] was 2.06%. The “Hygroscopic weight change 20% RH-80% RH” value [3] was 1.03%, the “Hygroscopicity class (20% RH-80% RH)” value [3] was “(slightly hygroscopic)” and the “Crystal form after hygroscopicity test” value [3] was “Untransformed”.

For `N#Cc1ccc(N2CCC(Sc3ccc(COc4cccc5c4CN([C@H]4CCC(=O)NC4=O)C5=O)cn3)CC2)c(F)c1` [Crystal form D, (S)-4-(4-((5-(((2-(2,6-dioxopiperidin-3-yl)-1-oxoisoindolin-4-yl)oxy)methyl)pyridin-2-yl)thio)piperidin-1-yl)-3-fluorobenzonitrile], the Color and character ([1]; 40° C., 9 days, open exposure) was “White solid”, the Purity % ([1]; 40° C., 9 days, open exposure, listed as Free crystal form D) was 97.3% and the Color and character ([1]; 40° C., 15 days, open exposure) was “White solid”. The Purity % ([1]; 40° C., 15 days, open exposure, listed as Free crystal form D) was 96.7%, the Color and character ([1]; 40° C., 30 days, open exposure) was “White solid” and the Purity % ([1]; 40° C., 30 days, open exposure, listed as Free crystal form D) was 95.8%. For the same molecule, the “change in purity under 60° C. and light” value ([1]; 30 days) was “slight decrease in purity”, the Color and character ([1]; 60° C., 9 days, open exposure) was “White solid” and the Purity % ([1]; 60° C., 9 days, open exposure, listed as Free crystal form D) was 96.6%. For the same molecule, the Color and character ([1]; 60° C., 15 days, open exposure) was “White solid”, the Purity % ([1]; 60° C., 15 days, open exposure, listed as Free crystal form D) was 95.8% and the Color and character ([1]; 60° C., 30 days, open exposure) was “White solid”. For the same molecule, the Purity % ([1]; 60° C., 30 days, open exposure, listed as Free crystal form D) was 93.9%, the Color and character ([1]; 75% RH, 9 days, open exposure) was “White solid” and the Purity % ([1]; 75% RH, 9 days, open exposure, listed as Free crystal form D) was 97.8%. The Color and character ([1]; 75% RH, 15 days, open exposure) was “White solid”, the Purity % ([1]; 75% RH, 15 days, open exposure, listed as Free crystal form D) was 97.7% and the Color and character ([1]; 75% RH, 30 days, open exposure) was “White solid”. For the same molecule, the Purity % ([1]; 75% RH, 30 days, open exposure, listed as Free crystal form D) was 97.9%, the Color and character ([1]; 92.5% RH, 9 days, open exposure) was “White solid” and the Purity % ([1]; 92.5% RH, 9 days, open exposure, listed as Free crystal form D) was 97.8%. The Color and character ([1]; 92.5% RH, 15 days, open exposure) was “White solid”, the Purity % ([1]; 92.5% RH, 15 days, open exposure, listed as Free crystal form D) was 97.9% and the Color and character [1, 5] was “White solid”. For the same molecule, the Purity % ([1]; 92.5% RH, 30 days, open exposure, listed as Free crystal form D) was 97.8%, the Color and character ([1]; Onset, 0 days) was “White solid” and the Purity % ([1]; Onset, 0 days, listed as Free crystal form D) was 97.9%. The “physicochemical stability under high humidity” value ([1]; 30 days) was “good physicochemical stability”, the Color and character ([1]; light 4500 Lux, 9 days, open exposure) was “White solid” and the Purity % ([1]; light 4500 Lux, 9 days, open exposure, listed as Free crystal form D) was 97.3%. The Color and character ([1]; light 4500 Lux, 15 days, open exposure) was “White solid”, the Purity % ([1]; light 4500 Lux, 15 days, open exposure, listed as Free crystal form D) was 96.8% and the Color and character [1, 6] was “White solid”. The Purity % ([1]; light 4500 Lux, 30 days, open exposure, listed as Free crystal form D) was 95.4%, the “crystal form after influencing factor experiments” value ([1]; 30 days) was “remain unchanged” and the “physical and chemical stability, long-term accelerated conditions” value [2] was “good physical and chemical stability”. For the same molecule, the “Purity % 1 month” value ([2]; 25° C., 60% RH) was 97.8%, the “Purity % 2 months” value ([2]; 25° C., 60% RH) was 97.8% and the “Purity % 3 months” value ([2]; 25° C., 60% RH) was 97.8%. For the same molecule, the “Purity % 1 month” value ([2]; 40° C., 75% RH) was 97.8%, the “Purity % 2 months” value ([2]; 40° C., 75% RH) was 97.8% and the “Purity % 3 months” value ([2]; 40° C., 75% RH) was 97.7%. For the same molecule, the “Purity % 6 months” value ([2]; 40° C., 75% RH) was 97.6%, the “Purity % Onset” value [2] was 97.9% and the “Hygroscopic weight change 0.0% RH-95.0% RH” value [3] was 2.24%. For the same molecule, the “Hygroscopic weight change 20% RH-80% RH” value [3] was 1.26%, the “Hygroscopicity class (20% RH-80% RH)” value [3] was “(slightly hygroscopic)” and the “Crystal form after hygroscopicity test” value [3] was “Untransformed”.

Source: patent US20250154126A1, “CRYSTALLINE FORM OF SULFUR-CONTAINING ISOINDOLINE DERIVATIVE” (JIANGSU HENGRUI PHARMACEUTICALS CO., LTD., priority 2022, published 2025)
